# Tests used:
# Test in all cases: relative viability (nuclei count vs DMSO), 5 days (fraction); higher = more cells survive
# [1] = compound: CC1(COc2ccc3c(c2)ncn3-c2ccc3cccc(N4CCC(N)CC4)c3n2)COC1 [Crenolanib] + C[C@]1(O)C[C@@H](c2nc(-c3ccc4ccc(-c5ccccc5)nc4c3)c3c(N)nccn32)C1 [Linsitinib] (partner 1 µM)
# Method in brief: (§1)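 Cells from lung cancer lines were seeded into 1536-well plates and, one day later, dosed by pin tool. Treatments were either a single drug or a fixed dose of an anchor drug with five library-drug doses (not always all listed) in √10 steps. After 5 days, nuclei were stained in a one-step fixation (final 0.05% Triton X-100, 1% formaldehyde, 1 ug/ml Hoechst) and counted on 4× images, and relative viability is the treated-to-vehicle nuclei ratio, as the median of duplicate plates.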
# [2] = compound: O=C1NC(=O)[C@@H](c2cn3c4c(cccc24)CCC3)[C@@H]1c1c[nH]c2ccccc12 [Tivantinib] + Nc1ncn([C@H]2C[C@H](O)[C@@H](CO)O2)c(=O)n1 [Decitabine] (partner 2 µM)
# Method in brief: as §1
# [3] = compound: O=C1NC(=O)[C@@H](c2cn3c4c(cccc24)CCC3)[C@@H]1c1c[nH]c2ccccc12 [Tivantinib] + CC(=O)c1c(C)c2cnc(Nc3ccc(N4CCNCC4)cn3)nc2n(C2CCCC2)c1=O [Palbociclib] (partner 0.5 µM)
# Method in brief: as §1
# [4] = compound: CC1(COc2ccc3c(c2)ncn3-c2ccc3cccc(N4CCC(N)CC4)c3n2)COC1 [Crenolanib] + C[C@@H](Oc1cc(-c2cnn(C3CCNCC3)c2)cnc1N)c1c(Cl)ccc(F)c1Cl [Crizotinib] (partner 1 µM)
# Method in brief: as §1
Cell Line,relative viability ([1]; first compound 0.01 µM),relative viability ([1]; first compound 0.03162 µM),relative viability ([1]; first compound 0.1 µM),relative viability ([1]; first compound 0.3162 µM),relative viability ([1]; first compound 1 µM),relative viability ([2]; first compound 0.01 µM),relative viability ([2]; first compound 0.03162 µM),relative viability ([2]; first compound 0.1 µM),relative viability ([2]; first compound 0.3162 µM),relative viability ([3]; first compound 0.01 µM),relative viability ([3]; first compound 0.03162 µM),relative viability ([3]; first compound 0.1 µM),relative viability ([3]; first compound 0.3162 µM),relative viability ([4]; first compound 0.01 µM),relative viability ([4]; first compound 0.03162 µM),relative viability ([4]; first compound 0.1 µM),relative viability ([4]; first compound 0.3162 µM),relative viability ([4]; first compound 1 µM)
LXF-289,0.974,1.02,0.955,1.02,0.972,0.37,0.375,0.367,0.367,0.563,0.563,0.545,0.584,0.81,0.745,0.777,0.753,0.81
NCI-H522,,,,,,0.715,0.551,0.633,0.535,1.06,0.737,1.03,0.812,,,,,
NCI-H596,1.01,0.994,0.97,0.961,1.18,1.12,1.07,1.01,1.12,,,,,1.01,1.07,0.87,0.904,1.04
NCI-H1299,0.995,0.912,0.946,1.01,0.958,,,,,,,,,0.998,0.914,0.924,0.952,0.891
NCI-H1395,1.6,1.11,1,0.898,1.21,0.736,0.665,0.845,0.713,0.708,0.625,0.632,0.527,,,,,
NCI-H1563,1.12,1.3,1.18,1.23,1.06,,,,,,,,,0.867,0.841,0.862,0.848,0.847
NCI-H1648,,,,,,,0.507,0.513,0.397,,0.235,0.21,0.267,,,,,
NCI-H1650,,,,,,0.406,0.389,0.416,0.413,0.325,0.322,0.426,0.254,1.08,0.917,0.916,1.1,0.696
NCI-H1703,0.566,0.645,0.574,0.285,0.154,,,,,,,,,0.67,0.712,0.147,0.219,0.125
NCI-H1793,0.811,1.03,0.838,1.14,0.873,0.502,0.497,0.495,0.404,0.334,0.237,0.325,0.241,,,,,
NCI-H2170,,,,,,0.47,0.48,0.486,,0.398,0.411,0.363,,1.21,1.18,1.19,1.18,1.17
NCI-H2228,0.762,0.591,0.565,0.691,0.729,,,,,0.895,0.794,0.652,0.602,0.483,0.38,0.407,0.577,0.516
NCI-H2342,,,,,,0.845,0.789,0.699,0.624,0.498,0.49,0.719,0.438,,,,,
SW 900,,,,,,0.461,0.46,0.482,0.443,0.581,0.535,0.588,0.492,,,,,

# Source: the supplement of paper PMC10307832
